Measured values as given in ChEMBL document CHEMBL1201862, “PubChem BioAssay data set” (2004).
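Values below derive from 48-hour exposures of cells grown in 96-well plates, with endpoints linearly interpolated between the two concentrations bracketing the appropriate inhibition level. Here, GI50 denotes the concentration required for 50% inhibition of growth.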 Activity calls are given as the source filed them. Rule as the data show it: active = GI50 up to about 1.1 µM and inactive = higher.

What was measured:
Assay in all cases: growth of human tumour cells (NCI), 48 h
[1] = tested on: OVCAR-3
[2] = tested on: DU-145
[3] = tested on: SF-268
[4] = tested on: HL-60
[5] = tested on: DMS-273
[6] = tested on: XF498
[7] = tested on: Malme-3M
[8] = tested on: SR
[9] = tested on: UACC-257
[10] = tested on: DLD-1
[11] = tested on: KM-20L2
[12] = tested on: HCT-15
[13] = tested on: NCI-H522
[14] = tested on: CAKI-1
[15] = tested on: SK-OV-3
[16] = tested on: ACHN
[17] = tested on: SF-295
[18] = tested on: MDA-MB-435
[19] = tested on: A498
[20] = tested on: SW-620
[21] = tested on: HOP-62
[22] = tested on: M19-MEL
[23] = tested on: 786-0
[24] = tested on: U-251
[25] = tested on: RXF 393
[26] = tested on: TK-10
[27] = tested on: HT-29
[28] = tested on: A549
[29] = tested on: UO-31
[30] = tested on: MDA-MB-231
[31] = tested on: SK-MEL-5
[32] = tested on: MOLT-4
[33] = tested on: HOP-92
[34] = tested on: NCI-H226
[35] = tested on: M14
[36] = tested on: NCI/ADR-RES
[37] = tested on: SNB-75
[38] = tested on: OVCAR-4
[39] = tested on: BT-549
[40] = tested on: LXFL 529
[41] = tested on: IGROV-1
[42] = tested on: UACC-62
[43] = tested on: SNB-78
[44] = tested on: OVCAR-8
[45] = tested on: RPMI-8226
[46] = tested on: SK-MEL-2
[47] = tested on: SNB-19
[48] = tested on: OVCAR-5
[49] = tested on: NCI-H23
[50] = tested on: HOP-18
[51] = tested on: SF-539
[52] = tested on: HCC 2998
[53] = tested on: LOX IMVI
[54] = tested on: EKVX
[55] = tested on: T47D
[56] = tested on: K562
[57] = tested on: MDA-N
[58] = tested on: SK-MEL-28
[59] = tested on: HCT-116
[60] = tested on: CCRF-CEM
[61] = tested on: PC-3
[62] = tested on: DMS-114
[63] = tested on: COLO 205
[64] = tested on: SN12C
[65] = tested on: NCI-H460
[66] = tested on: KM12

## CN(C)CCNc1ccc(CO)c2sc3ccc(O)cc3c(=O)c12
[1]
  GI50: 10.6 µM (inactive)
[2]
  GI50: 0.467 µM (active)
[3]
  GI50: 1.55 µM (inactive)
[4]
  GI50: 0.258 µM (active)
[5]
  GI50: 0.615 µM (active)
[6]
  GI50: 4.92 µM (inactive)
[7]
  GI50: 2.66 µM (inactive)
[8]
  GI50: < 0.0157 µM (active)
[9]
  GI50: 5.24 µM (inactive)
[10]
  GI50: 3.52 µM (inactive)
[11]
  GI50: 6.41 µM (inactive)
[12]
  GI50: 2.31 µM
[13]
  GI50: 1.32 µM (inactive)
[14]
  GI50: 0.957 µM (active)
[15]
  GI50: 1.76 µM (inactive)
[16]
  GI50: 0.351 µM (active)
[17]
  GI50: 1 µM (active)
[18]
  GI50: 1.56 µM (inactive)
[19]
  GI50: 6.89 µM (inactive)
[20]
  GI50: 1.17 µM (inactive)
[21]
  GI50: 0.204 µM (active)
[22]
  GI50: 3.08 µM (inactive)
[23]
  GI50: 1.13 µM (inactive)
[24]
  GI50: 0.783 µM (active)
[25]
  GI50: 1.96 µM (inactive)
[26]
  GI50: 8.77 µM (inactive)
[27]
  GI50: 2.3 µM (inactive)
[28]
  GI50: 0.286 µM (active)
[29]
  GI50: 0.35 µM (active)
[30]
  GI50: 1.85 µM (inactive)
[31]
  GI50: 1.29 µM (inactive)
[32]
  GI50: 0.0262 µM (active)
[33]
  GI50: 0.832 µM (active)
[34]
  GI50: 1.15 µM (inactive)
[35]
  GI50: 3.01 µM (inactive)
[36]
  GI50: 3.28 µM (inactive)
[37]
  GI50: 2.42 µM (inactive)
[38]
  GI50: 4.63 µM (inactive)
[39]
  GI50: 2.62 µM (inactive)
[40]
  GI50: 4.88 µM (inactive)
[41]
  GI50: 3.42 µM (inactive)
[42]
  GI50: 1.34 µM (inactive)
[43]
  GI50: 14.4 µM (inactive)
[44]
  GI50: 1.97 µM (inactive)
[45]
  GI50: 1.69 µM (inactive)
[46]
  GI50: 5.21 µM (inactive)
[47]
  GI50: 2.46 µM (inactive)
[48]
  GI50: 5.26 µM (inactive)
[49]
  GI50: 0.869 µM (active)
[50]
  GI50: 12.9 µM (inactive)
[51]
  GI50: 0.459 µM (active)
[52]
  GI50: 2.58 µM (inactive)
[53]
  GI50: 1.11 µM (active)
[54]
  GI50: 5.13 µM (inactive)
[55]
  GI50: 1.91 µM (inactive)
[56]
  GI50: 2.06 µM (inactive)
[57]
  GI50: 1.45 µM (inactive)
[58]
  GI50: 7.8 µM (inactive)
[59]
  GI50: 1.12 µM (inactive)
[60]
  GI50: 0.171 µM (active)
[61]
  GI50: 1.32 µM (inactive)
[62]
  GI50: 0.681 µM (active)
[63]
  GI50: 4.3 µM (inactive)
[64]
  GI50: 1.23 µM (inactive)
[65]
  GI50: 0.0259 µM (active)
[66]
  GI50: 2.34 µM (inactive)
